This is an account of results in patent US10533018B2, “Antimicrobial prochelators to target drug-resistant bacteria and methods of making and using the same” (Duke University, priority 2015, dated 2020).

The subject of assay [1] is UTI89 E. coli. The assay can be described thus: Broth microdilution growth inhibition (OD600). In kind it is cell-based, Escherichia coli. The following applies: UTI89 E. coli. The text has this: (§1) Bacterial culture reagents including LB broth (Lennox), agar-agar, ampicillin, and ceftriaxone were purchased from Sigma Aldrich Corp. The Escherichia coli (E. coli) K12 strain HB101 and pGLO E. coli transformation kit purchased from Bio-Rad Laboratories Inc. HB101 was transformed with the bla gene via the pGLO plasmid. The bla gene encodes for a TEM-1 β-lactamase that imparts penicillin resistance to the mutant E. coli K-12 strain (+Bla). Strains E. coli UTI89, [27] pCOM-GFP-transformed E. coli UTI89 (pCOM-GFP), [28] and Methicillin-Resistant Staphylococcus aureus (MRSA) clone USA300 [29] have been previously described. The Extended-Spectrum β-Lactamase (ESBL) E. coli, Klebsiella pneumonia (Klebs), and Pseudomonas aeruginosa (Pseudo) strains were clinical isolates acquired deidentified from Duke Hospital and tested for antibiotic susceptibility in the Clinical Microbiology Laboratory using standard clinical susceptibility methods.
(§2) Cultures were incubated on LB (Lennox, Sigma) agar at 37° C. in ambient atmospheric composition. Before beginning an experiment, a single bacterial colony grown on LB agar was resuspended in 2 mL LB broth and incubated overnight to form a turbid cell suspension. The overnight culture was diluted 1:100 in LB and used immediately as the working culture. To assess the antibacterial activity of compounds, the working bacterial culture was aliquoted in a clear, flat-bottomed, 96-well polystyrene plate (Costar) and the compound of interest was added in 2-fold serial dilution from 500 to 1 μM. Plates were covered with a breathable sealing film (Aeroseal, Genesee Scientific) and incubated at 37° C. in ambient atmospheric composition with shaking at 200 rpm. Optical density at 600 nm was recorded after 4 h and 20 h for each well using a standard OD600 protocol with LB serving as the blank. The resulting dose-response curves were fit to a nonlinear regression in GraphPad Prism Version 6 to calculate the IC50 of DB4-51 in each strain.
(§3) The ability of DB4-162 to inhibit bacterial growth was assessed by a traditional broth microdilution method that assesses the turbidity of liquid cultures in the presence of varying concentrations of the compound. As described above for DB4-51, the antibacterial properties of the prochelator DB4-162 were assessed in non-pathogenic lab-strain HB101K-12 E. coli and compared to the pGLO-transfected mutant HB101K-12 E. coli that express β-lactamase. Clinically relevant pathogenic bacteria were also screened, including UTI89 E. coli, pCOM transfected UTI89 E. coli (pCOM), extended spectrum β-lactamase (ESBL) E. coli, methicillin-resistant Staphylococcus aureus (MRSA), and Klebsiella pneumonia (Klebs). In addition to being naturally resistant to many β-lactam antibiotics, MRSA can produce a number of β-lactamases. […] It should be noted that all of the bacteria tested are gram-negative except for gram-positive MRSA.
(§4) The goal of this screen was to calculate the IC50 of the prochelator in a series of pathogenic bacteria and compare these values to the IC50 of known antibiotics in those same strains to determine the relative effectiveness of DB4-162 against the drug-resistant and drug-susceptible bacteria in comparison to current antibiotic treatment options. Bacterial growth was monitored in LB broth at 37° C. in the presence and absence of DB4-162 for 20 hours. A concentration gradient of DB4-162 from 500 to 0 μM was used to screen all 7 strains of bacteria and the dose-response curves were fit to a […] to calculate the IC50 of DB4-162 in each strain. These IC50 values are an approximation of how effectively DB4-162 inhibits the growth of each bacterial strain in vitro.
(§5) IC50 values for ampicillin were calculated via broth microdilution in LB broth only. Values are listed as the mean followed by the 95% confidence interval about the mean. Mean and confidence intervals were calculated from a variable slope, nonlinear regression fit to the dose-response OD600 data. […]

In assay [2] the test system is Klebsiella pneumonia (Klebs). The experiment in a line: Broth microdilution growth inhibition (OD600). In kind it is cell-based.
From the text: as §1, §2, §3, §4, §5
(In broth dilution the organism is exposed to a series of concentrations in liquid medium.)

Assay [3] concerns ESBL E. coli. The assay can be described thus: microbe, parasite or virus in culture. In kind it is cell-based, Escherichia coli. To be noted: for IC50: ESBL E. coli.
From the text: as §1, §2, §3, §4, §5

Assay [4] deals with −Bla K-12 E. coli. The experiment in a line: microbe, parasite or virus in culture. In kind it is cell-based, Escherichia coli. To be noted: −Bla K-12 E. coli.
From the text: as §1, §2, §3, §4, §5

Assay [5] has as its system +Bla K-12 E. coli. The assay can be described thus: microbe, parasite or virus in culture. In kind it is cell-based, Escherichia coli.
From the text: as §1, §2, §3, §4, §5

Assay [6] is described as follows: Calcein fluorescence assay for Cu competition. In kind it is physicochemical. Here is the method:
FIG. 11: To solutions of 2 μM calcein in pH 7.4 PBS was added 2.4 μM CuCl2 and the samples were fully equilibrated at room temperature for 2 hours. Next, 20 μM TAT, 20 μM DB4-162, 0.1 units/mL β-lactamase were added and the fluorescence at 500 nm was recorded after one hour.
A calcein fluorescence assay for metal competition was utilized in order to evaluate the relative metal-binding affinity of DB4-51 compared to PT. The fluorescence intensity of the probe calcein is quenched by more than 90% upon binding Cu^2+. […] However, when incubated with 10 equivalents of DB4-51 and 0.1 units/mL Type III β-lactamase from Enterobacter cloacae, there is an 85% return in calcein fluorescence, which correlates well with the 90% return observed for PT itself at the same concentration.
FIG. 4: Relative Cu binding assay with DB4-51 and PT against calcein. Solutions of 2 μM calcein and 2.4 μM CuCl2 in pH 7.4 PBS were equilibrated at room temperature for 2 hours prior to addition of 20 μM PT, 20 μM DB4-51, and/or 0.1 units/mL β-lactamase (Bla).
The calcein assay was utilized in order to assess the relative copper chelating ability of the prochelator and TAT. The fluorescence emission of calcein is quenched by more than 90% in the presence of 1.2 equivalents of CuCl2 (FIG. 11). […] The addition of 0.1 units/mL β-lactamase alone has no effect on the quenched fluorescence signal of the Cu-calcein solution. […] However, when incubated with 10 equivalents of DB4-162 and 0.1 units/mL β-lactamase there is a 90% return in calcein fluorescence. […] While it is unclear why 10 equivalents of TAT are insufficient to out-compete calcein for copper, it may be related to the propensity of TAT to form other species in aqueous media.

In assay [7] the test system is pCOM E. coli. The experiment in a line: microbe, parasite or virus in culture. In kind it is cell-based, Escherichia coli. To be noted: for IC50: Escherichia coli, pCOM E. coli.
From the text: as §1, §2, §3, §4, §5

Where [8] appears, read: Escherichia coli, +Bla K-12 E. coli, LB + 10 μM CuCl2.
[9] abbreviates: Escherichia coli, +Bla K-12 E. coli, LB + 500 μM BCS.
[10] abbreviates: Escherichia coli, LB + 10 μM CuCl2.
The mark [11] stands for this setting: Escherichia coli, LB + 500 μM BCS.
Where [12] appears, read: 2 μM calcein + 2.4 μM CuCl2, pH 7.4 PBS, 20 μM (10 equivalents) compound alone, 1 h.
Where [13] appears, read: as above, 10 equivalents compound + 0.1 units/mL β-lactamase.
Where [14] appears, read: Klebsiella pneumoniae, LB + 10 μM CuCl2.
[15] abbreviates: Klebsiella pneumoniae, LB + 500 μM BCS.
The mark [16] stands for this setting: Escherichia coli, LB + 10 μM CuCl2, read-out: IC50.
[17] abbreviates: Escherichia coli, LB + 500 μM BCS, read-out: IC50.
[18] abbreviates: Klebsiella pneumoniae, LB broth.
Setting [19] is: Escherichia coli, +Bla K-12 E. coli, LB broth.

For orientation: IC50 means the concentration that gives 50% inhibition.

Read-outs that look alike come from different tables or passages of the source.

For `CC1(C)S[C@@H]2[C@H](NC(=O)[C@H](N)c3ccccc3)C(=O)N2[C@H]1C(=O)O` [Ampicillin], the IC50 in assay [1] (LB broth) was 0.003 µM; in assay [1] (LB broth, listed as ampicillin) it was 3 µM; in assay [2] (LB broth), over 250 µM; in assay [3] (LB broth), over 250 µM; in assay [4] (LB broth, listed as ampicillin, read-out: IC50), 8 µM; in assay [4] (LB broth, read-out: IC50), 0.008 µM. The IC50 in assay [5] (+Bla K-12 E. coli, LB broth) was over 250 µM; in assay [5] (setting [8]) it was over 250 µM; in assay [5] (setting [9]), over 250 µM.

As to `O=C(Cc1ccccc1)N[C@@H]1C(=O)N2C(C(=O)O)=C(CSc3cccc[n+]3[O-])CS[C@H]12` [DB4-51, 2-((((6R,7R)-2-carboxy-8-oxo-7-(2-phenylacetamido)-5-thia-1-azabicyclo[4.2.0]oct-2-en-3-yl)methyl)thio)pyridine 1-oxide], the IC50 in assay [1] (setting [10]) is 0.021 µM; in assay [1] (setting [11]), 0.017 µM; in assay [2] (setting [14]) it was 0.025 µM; in assay [2] (setting [15]), 0.02 µM; in assay [3] (setting [11]) it was 0.017 µM; in assay [4] (setting [16]) it was 0.015 µM. The IC50 stood at 0.038 µM in assay [4] (setting [17]); 9 µM in assay [4] (Escherichia coli, pre-incubated with β-lactamase, read-out: IC50 after pre-incubation with β-lactamase); 0.051 µM in assay [5] (setting [9]); 8 µM in assay [5] (Escherichia coli, read-out: IC50 after pre-incubation with β-lactamase, +Bla K-12 E. coli, pre-incubated with β-lactamase). In addition, the “return in calcein fluorescence” value in assay [6] (setting [12]) is given as “does not compete with calcein for Cu binding”; in assay [6] (setting [13]), 85%. For the same molecule, the “change in IC50 value depending on Cu status” value is reported as 10 fold in assay [7] (pCOM-GFP UTI89 E. coli, Cu replete vs Cu depleted) and “less than 4 fold” in assay [5] (+Bla K-12 E. coli, Cu replete vs Cu depleted).

For the molecule `Cc1csc(=S)n1OCC1=C(C(=O)O)N2C(=O)[C@@H](NC(=O)Cc3ccccc3)[C@H]2SC1` [DB4-162, (6R,7R)-3-(((4-methyl-2-thioxothiazol-3(2H)-yl)oxy)methyl)-8-oxo-7-(2-phenylacetamido)-5-thia-1-azabicyclo[4.2.0]oct-2-ene-2-carboxylic acid], the 50% inhibitory concentration (IC50) in assay [1] (setting [10]) was found to be 97 µM; in assay [1] (setting [11]), 77 µM; in assay [1] (Escherichia coli, LB broth), 93 µM; in assay [2] (setting [14]), 22 µM; in assay [2] (setting [15]) it was 24 µM; in assay [2] (setting [18]) it was 28 µM. In addition, the IC50 in assay [7] (LB + 10 μM CuCl2) turned out to be 93 µM; in assay [7] (LB + 500 μM BCS), 168 µM; in assay [7] (LB broth), 112 µM; in assay [3] (setting [10]), 21 µM; in assay [3] (setting [11]), 50 µM; in assay [3] (Escherichia coli, LB broth) it was 22 µM. The half-inhibitory concentration (IC50) in assay [4] (setting [16]) was determined as 39 µM; in assay [4] (setting [17]), 54 µM; in assay [4] (Escherichia coli, LB broth, read-out: IC50) it was 227 µM; in assay [5] (setting [8]) it was 147 µM; in assay [5] (setting [9]) it was 179 µM; in assay [5] (setting [19]), 143 µM. In addition, the “return in calcein fluorescence” value was “approximately 50%” in assay [6] (setting [12]) and 90% in assay [6] (setting [13]). Moreover, the “IC50 in ESBL E. coli lower than in −Bla K-12 E. coli” value in assay [3] (LB broth) is 90%.

For the molecule `[O-][n+]1ccccc1S` [PT, 2-mercaptopyridine N-oxide], the IC50 in assay [1] (setting [10]) was determined as 0.004 µM; in assay [1] (setting [11]), 0.006 µM; in assay [1] (Escherichia coli, LB broth) it was 0.002 µM; in assay [2] (setting [14]), 0.009 µM; in assay [2] (setting [15]), 0.019 µM; in assay [2] (setting [18]), 0.011 µM. For the same molecule, the IC50 turned out to be 0.004 µM in assay [7] (LB + 10 μM CuCl2); 0.007 µM in assay [7] (LB + 500 μM BCS); 0.002 µM in assay [7] (LB broth); 0.005 µM in assay [3] (Escherichia coli, LB broth); 0.019 µM in assay [5] (setting [9]); 0.006 µM in assay [5] (setting [19]). For the same molecule, in assay [6] (setting [12]), the “return in calcein fluorescence” value is listed as 90%.
